Here are results for one compound from patent publication US8426369B2, “Prevention and treatment of colon cancer” (Rutgers, The State University of New Jersey, priority 2006, dated 2013).

Each structure is given as a SMILES string.

For assay [1] the following is noted: rats; cited from earlier work.
In assay [2] the test system is IκBα. The assay is described as follows: Western blot of IκBα after cytokine treatment of HT-29 cells. It is filed as cell-based, human. To be noted: cytokine treatment 15 min. The procedure:
(§1) The cell culture conditions and the reagents used in this example were described in Example 32. Whole cell extracts were collected after the various treatments and analyzed by western blotting. The protein samples were separated on 4-15% SDS-PAGE gels (Biorad, Hercules, Calif.) followed by transfer to a polyvinylidene fluoride membrane. The membranes were blocked with 5% milk in Tris buffer for 1 h and then incubated with the appropriate primary antibody solutions overnight at 4° C. The membranes were washed with Tris buffer, and incubated with horseradish peroxidase conjugated secondary antibody solutions for 1 h at room temperature.
(§2) The protein bands were visualized using a chemiluminescence based kit from Amersham Biosciences (Buckinghamshire, UK). The primary antibodies against iNOS, COX-2, IκBα, cyclin D1, c-myc (Santa Cruz Bio-technology, Santa Cruz, Calif.), phospho-STAT3, phospho-Erk1/2, phospho-JNK1/2, phospho-p38, phospho-Akt, phospho-ATF2, phospho-Elk1, PARP (Cell Signaling Technology Inc., Beverly, Mass.) and actin (Sigma, St. Louis, Mo.) and secondary antibodies (Santa Cruz Biotechnology, Santa Cruz, Calif.) were used for probing the abundance of the target protein in the samples.
(§3) The significance of the JAK-STAT pathway in HT-29 cells was evaluated by probing for phospho-STAT3. Cytokines activated the STAT pathway, as shown by a strong induction of phospho-STAT3.
For orientation: Immunoblotting shows a protein as a band on a membrane.

Assay [3] relates to TGF-β ligands. Put plainly: Induction of TGF-β ligands in HT-29 cells. The class given is cell-based, human. Particulars: HT-29, data not shown. The source says: The significance of the transforming growth factor (TGF-β) pathway in down-regulating iNOS expression by pterostilbene was also investigated since TGF-β is a very potent inhibitor of iNOS and cytokines regulate Smad signaling of the TGF-β pathway. However, there was no effect of pterostilbene on activated Smad levels (p-Smad3) or in inducing TGF-β ligands (data not shown).

The test system of assay [4] is B16M-F10 melanoma cells. Particulars: intravenous administration to mice; cited from earlier work.
For assay [5], the system named is phospho-STAT3. The assay is described as follows: Western blot of phospho-STAT3 in cytokine-treated HT-29 cells. It is filed as cell-based, human. The procedure: as §1, §2, §3
For assay [6], the system named is Elk-1. The assay is described as follows: Western blot of cytokine-induced Elk-1 phosphorylation in HT-29 cells. It is filed as cell-based, human. Particulars: cytokine-treated HT-29. The procedure: as §1
The protein bands were visualized using a chemiluminescence based kit from Amersham Biosciences (Buckinghamshire, UK). The primary antibodies against iNOS, COX-2, IκBα, cyclin D1, c-myc (Santa Cruz Bio-technology, Santa Cruz, Calif.), phospho-STAT3, phospho-Erk1/2, phospho-JNK1/2, phospho-p38, phospho-Akt, phospho-ATF2, phospho-Elk1, PARP (Cell Signaling Technology Inc., Beverly, Mass.) and actin (Sigma, St. Louis, Mo.) and secondary antibodies (Santa Cruz Biotechnology, Santa Cruz, Calif.) were used for probing the abundance of the target protein in the samples. […]

For assay [7] the following is noted: 25 mg pterostilbene/kg diet, hypercholesterolemic hamsters; cited from earlier work.
In assay [8] the test system is HT-29 cells. Put plainly: [3H]Thymidine incorporation cell proliferation assay in HT-29 cells. The class given is cell-based, human. Particulars: Homo sapiens, HT-29, 30 μM at 3 days, read-out: inhibition of DNA synthesis. As to the method:
The stilbenes illustrated in FIG. 4 were also used to investigate their ability to inhibit cell proliferation in HT-29 cell line. In this experiment, HT-29 cells (20,000 cells/well in 24-well plate) were treated with the respective stilbenes (each used either at 30 μM or 3 μM) in 10% FBS/DMEM for three days.
Human colon carcinoma cell lines HT-29 was obtained from the American Type Culture Collection (Manassas, Va.). The cells were maintained in Dulbecco's modification of Eagle's medium (DMEM) supplemented with 10% FBS and 1% penicillin/streptomycin at 37° C. and 5% CO2. The cytokine mixture, consisting of 10 ng/ml of TNF-α, IFN-γ and LPS, was used to induce iNOS and COX-2, unless otherwise mentioned. The cells were treated with the test compound either alone or in combination with cytokines for different time intervals and harvested for protein or RNA.
HT-29 cells were plated at a density of 20,000 cells/well in a 24 well plate and treated with varying concentrations of pterostilbene for a period of 1, 2 or 3 days at 37° C. Before harvest, the cells were incubated with 1 μCi [^3H]thymidine for 4 h at 37° C. and were washed with phosphate buffered saline. The cells were precipitated with cold 10% trichloroacetic acid for 10 min and solubilized with 0.5 ml solubilization buffer (0.2 M NaOH, 40 μg/ml salmon sperm DNA) for 2 h at room temperature. The lysate was transferred to 5 ml Ecolume and the [3H]thymidine incorporated into the DNA of HT-29 cells was determined using a scintillation spectrometer (Beckman Coulter, Fullerton, Calif.).
A general note: Dividing cells build labelled thymidine or BrdU into new DNA.

Assay [9] deals with cyclin D1. Put plainly: Western blot of cyclin D1 in HT-29 cells. The class given is cell-based, human. Particulars: 9 h or 18 h, especially at 9 h. The procedure: (§4) The cells were incubated with different concentrations of pterostilbene for 1, 2 and 3 days, and cell proliferation was estimated by measuring [^3H]thymidine incorporated into DNA. […] In order to evaluate whether pterostilbene potentiates cell cycle arrest or apoptosis in HT-29 cells, the effect of pterostilbene on the proteins regulating the cell cycle and/or apoptosis pathways was examined. Cells treated with pterostilbene for 9 h or 18 h were harvested and protein samples were analyzed by Western blotting (FIG. 8B).
as §1
(§5) The protein bands were visualized using a chemiluminescence based kit from Amersham Biosciences (Buckinghamshire, UK). […]

In assay [10] the test system is iNOS mRNA. Put plainly: Quantitative RT-PCR of cytokine-induced iNOS mRNA in HT-29 cells. It is filed as cell-based, human. Particulars: 10 and 30 μM. The procedure:
The cell culture conditions and the reagents used in this example were described in Example 32. The gene-mediated expression of iNOS and COX-2 are reported to be regulated at both the transcriptional and translational levels. In order to understand the effect of pterostilbene on cytokine-induced expression of proinflammatory enzymes and cytokines, RNA samples after treatment of HT-29 cells with cytokines and/or pterostilbene were analyzed by quantitative RT-PCR for the induction of mRNA levels of iNOS, COX-2, IL-1β, IFN-γ and TNF-α genes.
To determine the changes of mRNA levels by pterostilbene and cytokines, quantitative RT-PCR analysis was utilized, as described previously (Lee et al., Mol Pharmacol 2006; 69(6):1840-1848). Briefly, the cells were incubated with compounds for indicated period and the cells were then lysed using Trizol to extract RNA. RNA was reverse transcribed into cDNA using a high capacity cDNA archive kit (Applied Biosystems, Foster City, Calif.). The cDNA was used for quantitative PCR which was run on the ABI Prism […] sequence Detection System. The primers for the iNOS, COX-2, IFN-γ, TNF-α, IL-1β and GAPDH were obtained from Applied Biosystems (Foster City, Calif.).

Assay [11] has as its system p27. Put plainly: Western blot of p27 in HT-29 cells. It is filed as cell-based, human. Particulars: HT-29, data not shown. The procedure: as §4, §1, §5
The test system of assay [12] is p65 subunit of NF-κB. Put plainly: Nuclear protein level of p65 subunit of NF-κB in HT-29 cells. To be noted: HT-29, data not shown. The class given is cell-based, human.
Assay [13] relates to ERK1/2. The assay is described as follows: Western blot of phosphorylated ERK1/2 in cytokine-treated HT-29 cells. It is filed as cell-based, human. As to the method: as §1, §2

Regarding `COc1cc(/C=C/c2ccc(O)cc2)cc(OC)c1` [pterostilbene, (E)-4-(3,5-dimethoxystyryl)phenol], in assay [1], the serum glucose entry is recorded as “lower serum glucose”. The “effects on IκBα induced by the cytokines” value in assay [2] is “did not block”. The “inducing TGF-β ligands” value in assay [3] was “no effect”. For the same compound, in assay [4], the “metastatic growth of B16M-F10 melanoma cells in the liver” value is reported as “inhibited metastatic growth”. Also, the “level of induced phospho-STAT3” value in assay [5] was “did not alter”. For the same compound, the “cytokine-induced activation (phosphorylation) of Elk-1” value in assay [6] is listed as “effective in inhibiting”. The “plasma cholesterol and lipoproteins” value in [7] is “lowered plasma cholesterol and lipoproteins”. For the same compound, the inhibition (usually the drop in the measured response relative to a control, in per cent) at 30 µM in assay [8] was found to be 71 ± 3%. Also, in assay [9], the “cyclin D1 level” value is on record as “effective in reducing”. Besides, the “iNOS mRNA induction by the cytokine mixture” value in assay [10] is listed as “strongly inhibited”. The “induction of p27” value in [11] is listed as “no induction”. The “nuclear protein levels of the p65 subunit of NF-κB” value in assay [12] is “remained high and unaltered”. Further, the “ERK1/2 activation by cytokines” value in [13] is reported as “did not block”.
